Measurements published in ChEMBL document CHEMBL3885861, “Open TG-GATES”.

Species on record: Rattus norvegicus
Test: Open TG-GATES - Regimen: Daily Repeat
Type: toxicity, organism-based, Sprague-Dawley
Set-up: regimen Daily Repeat, gender Male, age 6 weeks
Conditions: in vivo, po, 100 mg/kg, route gavage, dose level Middle; for APTT / Bas / Eos / Fbg / Hb / Ht / Lym / MCH / MCHC / MCV / Mono / Neu / PT / Plat / RBC / Ret / WBC: tissue Blood
[1] = 72 h, tissue Kidney, time 3 day
[2] = 72 h, tissue Plasma, time 3 day

CCCNC(=O)NS(=O)(=O)c1ccc(Cl)cc1 [CHLORPROPAMIDE]
TERMINAL_BW (72 h, time 3 day): 208.2 g | APTT (72 h, time 3 day): 17.5 s | Bas (72 h, time 3 day): 0% | Eos (72 h, time 3 day): 1% | Fbg (72 h, time 3 day): 275.8 mg/dL | Hb (72 h, time 3 day): 13 g/dL | Ht (72 h, time 3 day): 40.2% | Lym (72 h, time 3 day): 77.2% | MCH (72 h, time 3 day): 20.8 pg | MCHC (72 h, time 3 day): 32.5% | MCV (72 h, time 3 day): 64.1 fL | Mono (72 h, time 3 day): 2.6% | Neu (72 h, time 3 day): 18.2% | PT (72 h, time 3 day): 16.2 s | Plat (72 h, time 3 day): 111.5 x10_4/uL | RBC (72 h, time 3 day): 626.8 x10_4/ul | Ret (72 h, time 3 day): 6.2% | WBC (72 h, time 3 day): 65.6 x10_2/uL | KIDNEY_L [1]: 0.9 g | KIDNEY_R [1]: 0.9 g | KIDNEY_TOTAL [1]: 1.8 g | LIVER (72 h, tissue Liver, time 3 day): 9.3 g | A/G [2]: 0.8 | ALP [2]: 1720.4 IU/L | ALT [2]: 49.2 IU/L | AST [2]: 71.2 IU/L | BUN [2]: 17 mg/dL | CRE [2]: 0.2 mg/dL | Ca [2]: 10.6 mg/dL | Cl [2]: 106.6 meq/L | DBIL [2]: 0.008 mg/dL | GLC [2]: 174.6 mg/dL | IP [2]: 7.7 mg/dL | K [2]: 3.7 meq/L | LDH [2]: 65.6 IU/L | Na [2]: 142.6 meq/L | PL [2]: 154.6 mg/dL | RALB [2]: 2.6 g/dL | TBIL [2]: 0.022 mg/dL | TC [2]: 85.4 mg/dL | TG [2]: 76.6 mg/dL | TP [2]: 5.7 g/dL | gamma-GTP [2]: 1 IU/L | TERMINAL_BW ([…], time 7 day): 237.9 g | TERMINAL_BW ([…], time 14 day): 287.5 g | TERMINAL_BW ([…], time 28 day): 344.3 g | APTT ([…], time 7 day): 17.8 s | Bas ([…], time 7 day): 0% | Eos ([…], time 7 day): 1% | Fbg ([…], time 7 day): 277.2 mg/dL | Hb ([…], time 7 day): 13.2 g/dL | Ht ([…], time 7 day): 39.7% | Lym ([…], time 7 day): 77.8% | MCH ([…], time 7 day): 20.7 pg | MCHC ([…], time 7 day): 33.2% | MCV ([…], time 7 day): 62.3 fL | Mono ([…], time 7 day): 2.8% | Neu ([…], time 7 day): 17.2% | PT ([…], time 7 day): 16 s | Plat ([…], time 7 day): 112.6 x10_4/uL | RBC ([…], time 7 day): 638 x10_4/ul | Ret ([…], time 7 day): 6.6% | WBC ([…], time 7 day): 118.8 x10_2/uL | APTT ([…], time 14 day): 17.7 s | Bas ([…], time 14 day): 0.2% | Eos ([…], time 14 day): 0.8% | Fbg ([…], time 14 day): 275.8 mg/dL | Hb ([…], time 14 day): 13.8 g/dL | Ht ([…], time 14 day): 40.9% | Lym ([…], time 14 day): 79.4% | MCH ([…], time 14 day): 20.8 pg | MCHC ([…], time 14 day): 33.6% | MCV ([…], time 14 day): 62 fL | Mono ([…], time 14 day): 2.2% | Neu ([…], time 14 day): 16.4% | PT ([…], time 14 day): 16 s | Plat ([…], time 14 day): 107 x10_4/uL | RBC ([…], time 14 day): 660.4 x10_4/ul | Ret ([…], time 14 day): 4.7% | WBC ([…], time 14 day): 97.8 x10_2/uL | APTT ([…], time 28 day): 19.5 s | Bas ([…], time 28 day): 0% | Eos ([…], time 28 day): 1% | Fbg ([…], time 28 day): 290.4 mg/dL | Hb ([…], time 28 day): 14.6 g/dL | Ht ([…], time 28 day): 43.4%
